#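 Where inhibition never reached the appropriate level, the endpoint shown equals the highest concentration tested. Otherwise, values were interpolated linearly from a five-concentration, 48-hour dose response in 96-well plates. Definition used: TGI = concentration required for complete inhibition of growth.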
# Tests used:
# Test in all cases: NCI anticancer screen, dose series, 48 h
# [1] = system: HCT-15 colon
# [2] = system: SR leukemia
# [3] = system: HL-60(TB) leukemia
# [4] = system: RPMI-8226 leukemia
# [5] = system: HS 578T breast
# [6] = system: MDA-MB-231 breast
# [7] = system: PC-3 prostate
# [8] = system: T-47D breast
# [9] = system: HOP-62 NSCLC
# [10] = system: CCRF-CEM leukemia
# [11] = system: NCI-H460 lung
# [12] = system: SF-268 CNS
# [13] = system: UACC-257 melanoma
# [14] = system: HCC-2998 colon
# [15] = system: SNB-19 CNS
# [16] = system: SN12C renal
# [17] = system: MDA-N
# [18] = system: SK-MEL-5 melanoma
# [19] = system: SK-OV-3 ovarian
# [20] = system: TK-10 renal
# [21] = system: U251 CNS
# [22] = system: NCI-H522 lung
# [23] = system: IGROV1 ovarian
# [24] = system: CAKI-1 renal
# [25] = system: UO-31 renal
# [26] = system: NCI/ADR-RES ovarian
# [27] = system: HT29 colon
# [28] = system: SW-620 colon
# [29] = system: MCF7 breast
# [30] = system: MDA-MB-435
# [31] = system: NCI-H23 lung
# [32] = system: A549 NSCLC
# [33] = system: OVCAR-4 ovarian
# [34] = system: K-562 leukemia
# [35] = system: MALME-3M melanoma
# [36] = system: BT-549 breast
# [37] = system: DU-145 prostate
# [38] = system: 786-0 renal
# [39] = system: OVCAR-3 ovarian
# [40] = system: SF-539 CNS
# [41] = system: OVCAR-5 ovarian
# [42] = system: SK-MEL-2 melanoma
# [43] = system: SK-MEL-28 melanoma
# [44] = system: COLO 205 colon
# [45] = system: OVCAR-8 ovarian
# [46] = system: EKVX NSCLC
# [47] = system: HCT-116 colon
# [48] = system: SF-295 CNS
# [49] = system: MOLT-4 leukemia
# [50] = system: LOX IMVI melanoma
# [51] = system: SNB-75 CNS
# [52] = system: KM12 colon
# [53] = system: RXF 393 renal
# [54] = system: A498 renal
# [55] = system: NCI-H226 lung
# [56] = system: UACC-62 melanoma
# [57] = system: ACHN renal
# [58] = system: M14 melanoma
# [59] = system: HOP-92 NSCLC
structure (smiles),measurement,setting,value
CC(C)(CCc1nc2ccccc2[nH]1)C(=O)O,TGI,[1],> 100 µM
same,TGI,[2],> 100 µM
same,TGI,[3],> 100 µM
same,TGI,[4],> 100 µM
same,TGI,[5],> 100 µM
same,TGI,[6],> 100 µM
same,TGI,[7],> 100 µM
same,TGI,[8],> 100 µM
same,TGI,[9],> 100 µM
same,TGI,[10],> 100 µM
same,TGI,[11],> 100 µM
same,TGI,[12],> 100 µM
same,TGI,[13],> 100 µM
same,TGI,[14],> 100 µM
same,TGI,[15],> 100 µM
same,TGI,[16],> 100 µM
same,TGI,[17],> 100 µM
same,TGI,[18],> 100 µM
same,TGI,[19],> 100 µM
same,TGI,[20],> 100 µM
same,TGI,[21],> 100 µM
same,TGI,[22],> 100 µM
same,TGI,[23],> 100 µM
same,TGI,[24],> 100 µM
same,TGI,[25],> 100 µM
same,TGI,[26],> 100 µM
same,TGI,[27],> 100 µM
same,TGI,[28],> 100 µM
same,TGI,[29],> 100 µM
same,TGI,[30],> 100 µM
same,TGI,[31],> 100 µM
same,TGI,[32],> 100 µM
same,TGI,[33],> 100 µM
same,TGI,[34],> 100 µM
same,TGI,[35],> 100 µM
same,TGI,[36],> 100 µM
same,TGI,[37],> 100 µM
same,TGI,[38],> 100 µM
same,TGI,[39],> 100 µM
same,TGI,[40],> 100 µM
same,TGI,[41],> 100 µM
same,TGI,[42],> 100 µM
same,TGI,[43],> 100 µM
same,TGI,[44],> 100 µM
same,TGI,[45],> 100 µM
same,TGI,[46],> 100 µM
same,TGI,[47],> 100 µM
same,TGI,[48],> 100 µM
same,TGI,[49],> 100 µM
same,TGI,[50],> 100 µM
same,TGI,[51],> 100 µM
same,TGI,[52],> 100 µM
same,TGI,[53],> 100 µM
same,TGI,[54],> 100 µM
same,TGI,[55],> 100 µM
same,TGI,[56],> 100 µM
same,TGI,[57],> 100 µM
same,TGI,[58],> 100 µM
same,TGI,[59],> 100 µM
Cc1c(Cl)cc(C(C)(C)C)c(O)c1Cc1c(C)c(Cl)cc(C(C)(C)C)c1O,TGI,[1],13.6 µM
same,TGI,[2],5.58 µM
same,TGI,[3],3.45 µM
same,TGI,[4],0.707 µM
same,TGI,[5],3.61 µM
same,TGI,[6],3.49 µM
same,TGI,[7],9.93 µM
same,TGI,[8],13.1 µM
same,TGI,[9],9.87 µM
same,TGI,[10],1.54 µM
same,TGI,[11],5.03 µM
same,TGI,[12],6.89 µM
same,TGI,[13],6.29 µM
same,TGI,[14],3.33 µM
same,TGI,[15],12.5 µM
same,TGI,[16],9.02 µM
same,TGI,[17],8.71 µM
same,TGI,[18],2.29 µM
same,TGI,[19],10 µM
same,TGI,[20],10 µM
same,TGI,[21],7.97 µM
same,TGI,[22],1.18 µM
same,TGI,[23],5.53 µM
same,TGI,[24],7.51 µM
same,TGI,[25],4.46 µM
same,TGI,[26],9.24 µM
same,TGI,[27],6.36 µM
same,TGI,[28],6.45 µM
same,TGI,[29],7.28 µM
same,TGI,[30],5.62 µM
same,TGI,[31],5.13 µM
same,TGI,[32],5.88 µM
same,TGI,[33],10.3 µM
same,TGI,[34],5.1 µM
same,TGI,[35],1.94 µM
same,TGI,[36],9.79 µM
same,TGI,[37],11.8 µM
same,TGI,[38],4.57 µM
same,TGI,[39],2.22 µM
same,TGI,[40],4.24 µM
same,TGI,[41],14 µM
same,TGI,[42],3.9 µM
same,TGI,[43],12.3 µM
same,TGI,[44],2.48 µM
same,TGI,[45],5.51 µM
same,TGI,[46],6.41 µM
same,TGI,[47],3.47 µM
same,TGI,[48],7.54 µM
same,TGI,[49],3.34 µM
same,TGI,[50],3.19 µM
same,TGI,[51],5.78 µM
same,TGI,[52],5.76 µM
same,TGI,[53],2.44 µM
same,TGI,[54],3.84 µM
same,TGI,[55],6.03 µM
same,TGI,[56],7 µM
same,TGI,[57],7.64 µM
same,TGI,[58],7.85 µM
same,TGI,[59],1.18 µM
CCOC(=O)c1ccc(-c2cccs2)[nH]1,TGI,[1],> 31.6 µM
same,TGI,[2],> 100 µM
same,TGI,[3],> 100 µM
same,TGI,[4],> 100 µM
same,TGI,[5],> 100 µM
same,TGI,[6],> 100 µM
same,TGI,[7],> 100 µM
same,TGI,[8],> 92.1 µM
same,TGI,[9],> 100 µM
same,TGI,[10],> 100 µM
same,TGI,[11],> 100 µM
same,TGI,[12],> 100 µM
same,TGI,[13],> 100 µM
same,TGI,[14],> 100 µM
same,TGI,[15],> 100 µM
same,TGI,[16],> 100 µM
same,TGI,[17],> 100 µM
same,TGI,[18],> 100 µM
same,TGI,[19],> 100 µM
same,TGI,[20],> 100 µM
same,TGI,[21],> 100 µM
same,TGI,[22],> 100 µM
same,TGI,[23],> 100 µM
same,TGI,[24],> 100 µM
same,TGI,[25],> 89 µM
same,TGI,[26],> 100 µM
same,TGI,[27],> 100 µM
same,TGI,[28],> 100 µM
same,TGI,[29],> 100 µM
same,TGI,[30],> 100 µM
same,TGI,[31],> 100 µM
same,TGI,[32],> 100 µM
same,TGI,[33],> 100 µM
same,TGI,[34],> 100 µM
same,TGI,[35],> 100 µM
same,TGI,[36],> 100 µM
same,TGI,[37],> 100 µM
same,TGI,[38],> 100 µM
same,TGI,[39],> 100 µM
same,TGI,[40],> 100 µM
same,TGI,[41],> 100 µM
same,TGI,[42],> 100 µM
same,TGI,[43],> 100 µM
same,TGI,[44],> 100 µM
same,TGI,[45],> 100 µM
same,TGI,[46],> 100 µM
same,TGI,[47],> 100 µM
same,TGI,[48],> 100 µM
same,TGI,[49],> 100 µM
same,TGI,[50],> 100 µM
same,TGI,[51],> 100 µM
same,TGI,[52],> 100 µM
same,TGI,[53],> 100 µM
same,TGI,[54],> 100 µM
same,TGI,[55],> 100 µM
same,TGI,[56],> 100 µM
same,TGI,[57],> 100 µM
same,TGI,[58],> 100 µM
same,TGI,[59],> 76.5 µM

# — PubChem BioAssay (NCI)
